Results taken from patent US20260083704A1, “LXR MODULATORS WITH BICYCLIC CORE MOIETY FOR TREATING DYSLIPIDEMIAS” (OrsoBio, Inc., priority 2022, published 2026).

Key:
[1] = system: LXR target genes (Scd1, Fas, Srebp1) in liver; assay: Short term HFD mouse model: gene expression in liver tissue; assay type: in vivo; conditions: HFD mice, expression normalized to Tbp; for response vs control in vivo at 20 mg/kg / response vs control in vivo at 10 mg/kg: Mus musculus, 4 h, read-out: Scd1 suppresion compared to vehicle
Procedure: (§1) The in vivo transcriptional regulation of several LXR target genes by LXR modulators was assessed in mice.
(§2) For this, C57BL/6J were purchased from Elevage Janvier (Rennes, France) at the age of 8 weeks. After an acclimation period of two weeks, animals were prefed on a high fat diet (HFD) (Ssniff Spezialdiäten GmbH, Germany, Surwit EF D12330 mod, Cat. No. E15771-34), with 60 kcal % from fat plus 1% (w/w) extra cholesterol (Sigma-Aldrich, St. Louis, MO) for 5 days. Animals were maintained on this diet during treatment with LXR modulators. The test compounds were formulated in 0.5% hydroxypropylmethylcellulose (HPMC) and administered in three doses (from 1.5 to 20 mg/kg each) by oral gavage according to the following schedule: on day one, animals received treatment in the morning and the evening (ca. 17:00), on day two animals received the final treatment in the morning after a 4 h fast and were sacrificed 4 h thereafter. Animal work was conducted according to the national guidelines for animal care in Germany.
Analysis of gene expression in liver tissue. To obtain total RNA from frozen liver tissue, samples (25 mg liver tissue) were first homogenized with RLA buffer (4M guanidin thiocyanate, 10 mM Tris, 0.97% w:v β-mercapto-ethanol). RNA was prepared using a SV 96 total RNA Isolation system (Promega, Madison, Wisconsin, USA) following the manufacturer's instructions. cDNAs were synthesized from 0.8-1 μg of total RNA using All-in-One cDNA Supermix reverse transcriptase (Absource Diagnostics, Munich, Germany). Quantitative PCR was performed and analyzed using Prime time Gene expression master mix (Integrated DNA Technologies, Coralville, Iowa, USA) and a 384-format ABI 7900HT Sequence Detection System (Applied Biosystems, Foster City, USA). The expression of the following genes was analysed: Stearoyl-CoA desaturase1 (Scd1), fatty acid synthase (Fas) and sterol regulatory element-binding protein1 (Srebp1). Specific primer and probe sequences (commercially available) are listed in Table 3. qPCR was conducted at 95° C. for 3 min, followed by 40 cycles of 95° C. for 15 s and 60° C. for 30 s. All samples were run in duplicates from the same RT-reaction. Gene expression was expressed in arbitrary units and normalized relative to the mRNA of the housekeeping gene TATA box binding protein (Tbp) using the comparative Ct method.

[2] = Short term HFD mouse model: plasma and liver exposure; assay type: in vivo; conditions: HFD mice, 4 h after final dose
Procedure: as §1, §2
Upon termination, liver was collected, dipped in ice cold PBS for 30 seconds and cut into appropriate pieces. Pieces were snap frozen in liquid nitrogen and stored at −80° C. For the clinical chemistry analysis from plasma, alanine aminotransferase (ALT, IU/mL), cholesterol (CHOL, mg/dL) and triglycerides (TG, mg/dL) were determined using a fully-automated bench top analyzer (Respons®910, DiaSys Greiner GmbH, Flacht, Germany) with system kits provided by the manufacturer.

[3] = three oral doses of 20 mg/kg over two days
[4] = three oral doses of 10 mg/kg over two days

Row | Compound | Fasn suppression compared to vehicle ([1]; three oral doses of 20 mg/kg) | response vs control in vivo at 20 mg/kg ([1]; three oral doses of 20 mg/kg) [%] | liver exposure 4 h [2, 3] | liver/plasma ratio 4 h [2, 3] | plasma exposure 4 h [2, 3] | Srebp1c suppr. compared to vehicle ([1]; three oral doses of 20 mg/kg) | Fasn suppression compared to vehicle ([1]; three oral doses of 10 mg/kg) | Srebp1c suppr. compared to vehicle ([1]; three oral doses of 10 mg/kg) | response vs control in vivo at 10 mg/kg ([1]; three oral doses of 10 mg/kg) [%] | liver exposure 4 h [2, 4] | liver/plasma ratio 4 h [2, 4] | plasma exposure 4 h [2, 4]
1 | N#Cc1cccc(C#N)c1-c1c(-c2cccc(-c3ccc(C(=O)O)cc3Cl)c2)n(S(=O)(=O)c2ccc(C(F)F)cc2)c2ccc(F)cc12 [11/12] | C (0.3 to ≤0.6) | < 30 | C (1 μM to ≤10 μM) | C (30 to ≤100) | D (<100 nM) | – | – | – | – | – | – | –
2 | O=C(O)c1ccc(-c2cccc(-c3c(-c4c(Cl)cccc4Cl)c4cc(F)ccc4n3S(=O)(=O)c3ccc(C(F)F)cc3)c2)c(Cl)c1 [11/13] | C (0.3 to ≤0.6) | < 30 | C (1 μM to ≤10 μM) | A (<5) | A (>1 μM) | – | – | – | – | – | – | –
3 | N#Cc1sccc1-c1c(-c2cccc(-c3ccc(C(=O)O)cc3Cl)c2)n(S(=O)(=O)c2ccc(C(F)(F)F)nc2)c2ccc(F)cc12 [11/16] | A (>0.9) | 30 to 60 | C (1 μM to ≤10 μM) | B (5 to ≤30) | C (100 nM to <300 nM) | B (0.6 to ≤0.9) | – | – | – | – | – | –
4 | N#Cc1sccc1-c1c(-c2cccc(-c3ccc(C(=O)O)cc3Cl)c2)n(S(=O)(=O)c2ccc(C(F)F)cc2)c2ccc(F)cc12 [11/17] | C (0.3 to ≤0.6) | < 30 | D (>10 μM) | C (30 to ≤100) | C (100 nM to <300 nM) | – | – | – | – | – | – | –
5 | O=C(O)c1ccc(-c2cccc(-c3c(-c4ncccc4C(F)(F)F)c4cc(F)ccc4n3S(=O)(=O)c3ccc(C(F)F)cc3)c2)c(Cl)c1 [11/23] | C (0.3 to ≤0.6) | < 30 | C (1 μM to ≤10 μM) | B (5 to ≤30) | C (100 nM to <300 nM) | – | – | – | – | – | – | –
6 | N#Cc1cccnc1-c1c(-c2cccc(-c3ccc(C(=O)O)cc3Cl)c2)n(S(=O)(=O)c2ccc(C(F)F)cc2)c2ccc(F)cc12 [11/26] | – | – | – | – | – | – | D (<0.3) | D (<0.3) | 30 to 60 | C (1 μM to ≤10 μM) | C (30 to ≤100) | C (100 nM to <300 nM)
7 | COc1c(C(=O)O)ccc(-c2cccc(-c3c(-c4ccccc4C#N)c4cc(F)ccc4n3S(=O)(=O)c3ccc(C(F)F)cc3)c2)c1Cl [11/27] | C (0.3 to ≤0.6) | < 30 | C (1 μM to ≤10 μM) | C (30 to ≤100) | D (<100 nM) | A (>0.9) | – | – | – | – | – | –
8 | N#Cc1ccccc1-c1c(-c2cccc(-c3ccc(C(=O)O)cc3Cl)c2)n(S(=O)(=O)c2ccc(C(F)F)cc2)c2ccc(F)cc12 [11/33] | B (0.6 to ≤0.9) | < 30 | C (1 μM to ≤10 μM) | C (30 to ≤100) | C (100 nM to <300 nM) | – | – | – | – | – | – | –
9 | N#Cc1cccc(C#N)c1-c1c(-c2cccc(-c3ccc(C(=O)O)cc3Cl)c2)n(S(=O)(=O)c2ccc(C(F)(F)F)nc2)c2ccc(F)cc12 [11/37] | – | – | – | – | – | – | – | D (<0.3) | < 30 | C (1 μM to ≤10 μM) | C (30 to ≤100) | D (<100 nM)
10 | N#Cc1ccccc1-c1c(-c2cccc(-c3ccc(C(=O)O)cc3Cl)c2)n(S(=O)(=O)c2ccc(C(F)F)cc2)c2cnccc12 [11/49] | C (0.3 to ≤0.6) | < 30 | C (1 μM to ≤10 μM) | D (>100) | D (<100 nM) | C (0.3 to ≤0.6) | – | – | – | – | – | –
